Patent US20220396569A1 (Carmot Therapeutics, Inc., priority 2021, published 2022)
pEC50: −log10 of the molar value.

Each molecule was assayed against T1, human GLP-1 receptor (Homo sapiens, UniProt P43220) (assay: GLP-1R cAMP Assay (HitHunter cAMP accumulation)). Conditions: cAMP accumulation, CHO cells stably overexpressing human GLP-1 receptor, 30 min treatment; read-out: EC50.
T1 construct: expressed in transfected cells
Type: cell-based
In short: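 CHO cells stably expressing human GLP-1R, 10,000 cells/well in HBSS with 10 mM HEPES and 625 μM IBMX, were mixed with anti-cAMP antibody reagent. Compound was applied as a 20-point dose response in triplicate for 30 min. After lysis and overnight detection, luminescence was read and dose-response curves analysed.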

T1 sequence (P43220 24-463): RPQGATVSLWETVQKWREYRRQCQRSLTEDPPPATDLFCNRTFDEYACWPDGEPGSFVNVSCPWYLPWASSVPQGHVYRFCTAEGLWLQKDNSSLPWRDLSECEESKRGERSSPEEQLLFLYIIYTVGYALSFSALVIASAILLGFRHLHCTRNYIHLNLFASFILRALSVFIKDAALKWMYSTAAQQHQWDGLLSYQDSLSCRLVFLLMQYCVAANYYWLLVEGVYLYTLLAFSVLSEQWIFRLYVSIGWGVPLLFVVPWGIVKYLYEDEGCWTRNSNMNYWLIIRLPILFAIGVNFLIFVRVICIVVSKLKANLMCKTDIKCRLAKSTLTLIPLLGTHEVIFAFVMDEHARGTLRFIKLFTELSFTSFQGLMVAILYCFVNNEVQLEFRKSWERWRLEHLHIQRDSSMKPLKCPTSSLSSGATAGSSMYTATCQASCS

| pEC50 | SMILES |
| --- | --- |
| > 7.30 | N#Cc1ccc(OCc2nc(C34CC3CN(Cc3nc5c(F)cc(C(=O)O)cc5n3C[C@@H]3CCO3)C4)ccc2F)c(F)c1 (stereo partly drawn) [Compound 523, 2-[(1-{6-[(4-cyano-2-fluorophenoxy)methyl]-5-fluoropyridin-2-yl}-3-azabicyclo[3.1.0]hexan-3-yl)methyl]-4-fluoro-1-{[(2S)-oxetan-2-yl]methyl}-1H-1,3-benzodiazole-6-carboxylic acid] |
| < 6.30 | CC1(c2ccc(Cl)cn2)Oc2cccc(CC3CN(Cc4nc5ccc(C(=O)O)cc5n4C[C@@H]4CCO4)C3)c2O1 (stereo partly drawn) [Compound 172, 2-[(3-{[2-(5-chloropyridin-2-yl)-2-methyl-2H-1,3-benzodioxol-4-yl]methyl}azetidin-1-yl)methyl]-1-{[(2S)-oxetan-2-yl]methyl}-1H-1,3-benzodiazole-6-carboxylic acid] |
| > 7.30 | O=C(O)c1ccc2nc(CN3CC(Oc4ccnc(COc5ccc(Cl)cc5Cl)c4)C3)n(Cc3cnco3)c2c1 [Example 219, 2-((3-((2-((2,4-Dichlorophenoxy)methyl)pyridin-4-yl)oxy)azetidin-1-yl)methyl)-1-(oxazol-5-ylmethyl)-1H-benzo[d]imidazole-6-carboxylic acid] |
| > 7.30 | Cc1cc(Oc2ccnc(COc3ccc(C#N)cc3F)n2)ccc1Cc1nc2c(F)cc(C(=O)O)cc2n1C[C@@H]1CCO1 [Compound 540, (S)-2-(4-((2-((4-Cyano-2-fluorophenoxy)methyl)pyrimidin-4-yl)oxy)-2-methylbenzyl)-4-fluoro-1-(oxetan-2-ylmethyl)-1H-benzo[d]imidazole-6-carboxylic acid] |
| > 7.30 | O=C(O)c1ccc2nc(CN3CCC(c4cc(COc5ccc(Cl)cc5F)ccc4F)C3)n(C[C@@H]3CCO3)c2c1 (stereo partly drawn) [Compound 419, 2-[(3-{5-[(4-chloro-2-fluorophenoxy)methyl]-2-fluorophenyl}pyrrolidin-1-yl)methyl]-1-{[(2S)-oxetan-2-yl]methyl}-1H-1,3-benzodiazole-6-carboxylic acid] |
| > 7.30 | O=C(O)c1ccc2nc(CN3CC(Oc4ccnc(COc5ccc(F)cc5F)n4)C3)n(C[C@@H]3CCO3)c2c1 [Compound 550] |
| > 7.30 | N#CCC1(Cn2c(CN3CC=C(c4ccc(F)c(COc5ccc(Cl)cc5F)n4)C3)nc3c(F)cc(C(=O)O)cc32)CC1 [Compound 430, 2-[(3-{6-[(4-chloro-2-fluorophenoxy)methyl]-5-fluoropyridin-2-yl}-2,5-dihydro-1H-pyrrol-1-yl)methyl]-1-{[1-(cyanomethyl)cyclopropyl]methyl}-4-fluoro-1H-1,3-benzodiazole-6-carboxylic acid] |
| > 7.30 | N#Cc1ccc(OCc2cc([C@@H]3CCN(Cc4nc5c(F)cc(C(=O)O)cc5n4C[C@@H]4CCO4)C3)ccc2F)c(F)c1 [Compound 450, 2-{[(3S)-3-{3-[(4-cyano-2-fluorophenoxy)methyl]-4-fluorophenyl}pyrrolidin-1-yl]methyl}-4-fluoro-1-{[(2S)-oxetan-2-yl]methyl}-1H-1,3-benzodiazole-6-carboxylic acid] |
| > 7.30 | O=C(O)c1ccc2nc(CN3CC[C@H](c4ccc(F)c(COc5ccc(Cl)cc5F)n4)C3)n(C[C@@H]3CCO3)c2c1 (single isomer, unassigned) [Compound 517] |
| 6.30 to 7.30 | O=C(O)c1ccc2nc(CN3CCC(c4cccc(Oc5ccccc5)c4)C3)n(C[C@@H]3CCO3)c2c1 (stereo partly drawn) [Example 119, 1-(((S)-Oxetan-2-yl)methyl)-2-((3-(3-phenoxyphenyl)pyrrolidin-1-yl)methyl)-1H-benzo[d]imidazole-6-carboxylic acid] |
| > 7.30 | CCn1cncc1Cn1c(Cc2ccc(Oc3ccnc(COc4ccc(C#N)cc4F)n3)cc2F)nc2ccc(C(=O)O)cc21 [Example 460, 2-(4-((2-((4-Cyano-2-fluorophenoxy)methyl)pyrimidin-4-yl)oxy)-2-fluorobenzyl)-1-((1-ethyl-1H-imidazol-5-yl)methyl)-1H-benzo[d]imidazole-6-carboxylic acid] |
| > 7.30 | CCn1cncc1Cn1c(CN2CC(Cc3cnc(COc4ccc(Cl)cc4Cl)o3)C2)nc2ccc(C(=O)O)cc21 [Example 147, 2-((3-((2-((2,4-Dichlorophenoxy)methyl)oxazol-5-yl)methyl)azetidin-1-yl)methyl)-1-((1-ethyl-1H-imidazol-5-yl)methyl)-1H-benzo[d]imidazole-6-carboxylic acid] |
| > 7.30 | N#Cc1ccc(OCc2nc(C3=CCN(Cc4nc5ccc(C(=O)O)cc5n4C[C@@H]4CCO4)C3)ccc2F)c(F)c1 [Compound 408, 2-[(3-{6-[(4-cyano-2-fluorophenoxy)methyl]-5-fluoropyridin-2-yl}-2,5-dihydro-1H-pyrrol-1-yl)methyl]-1-{[(2S)-oxetan-2-yl]methyl}-1H-1,3-benzodiazole-6-carboxylic acid] |
| > 7.30 | O=C(O)c1ccc2nc(CN3CC=C(c4cc(COc5ccc(Cl)cc5F)ncc4F)C3)n(C[C@@H]3CCO3)c2c1 [Compound 440, 2-[(3-{2-[(4-chloro-2-fluorophenoxy)methyl]-5-fluoropyridin-4-yl}-2,5-dihydro-1H-pyrrol-1-yl)methyl]-1-{[(2S)-oxetan-2-yl]methyl}-1H-1,3-benzodiazole-6-carboxylic acid] |
| > 7.30 | N#Cc1ccc(OCc2cc([C@@H]3CCN(Cc4nc5ccc(C(=O)O)cc5n4C[C@@H]4CCO4)C3)ccc2F)c(F)c1 [Compound 443, 2-{[(3S)-3-{3-[(4-cyano-2-fluorophenoxy)methyl]-4-fluorophenyl}pyrrolidin-1-yl]methyl}-1-{[(2S)-oxetan-2-yl]methyl}-1H-1,3-benzodiazole-6-carboxylic acid] |
| > 7.30 | CCn1cncc1Cn1c(CN2CC(Oc3cccc(COc4ccc(Cl)cc4Cl)c3)C2)nc2ccc(C(=O)O)cc21 [Compound 210, 2-[(3-{3-[(2,4-dichlorophenoxy)methyl]phenoxy}azetidin-1-yl)methyl]-1-[(1-ethyl-1H-imidazol-5-yl)methyl]-1H-1,3-benzodiazole-6-carboxylic acid] |
| > 7.30 | C[C@H]1[C@@H](Oc2ccnc(COc3ccc(F)cc3F)n2)CN1Cc1nc2ccc(C(=O)O)cc2n1C[C@@H]1CCO1 [Compound 548] |
| > 7.30 | N#Cc1ccc(OCc2nc(C3=CCN(Cc4nc5c(F)cc(C(=O)O)cc5n4CC4(CF)CC4)C3)ccc2F)c(F)c1 [Compound 416, 2-[(3-{6-[(4-cyano-2-fluorophenoxy)methyl]-5-fluoropyridin-2-yl}-2,5-dihydro-1H-pyrrol-1-yl)methyl]-4-fluoro-1-{[1-(fluoromethyl)cyclopropyl]methyl)-1H-1,3-benzodiazole-6-carboxylic acid] |
| > 7.30 | N#CCC1(Cn2c(CN3CC=C(c4ccc(F)c(COc5ccc(Cl)cc5F)n4)C3)nc3ccc(C(=O)O)cc32)CC1 [Compound 429, 2-[(3-{6-[(4-chloro-2-fluorophenoxy)methyl]-5-fluoropyridin-2-yl}-2,5-dihydro-1H-pyrrol-1-yl)methyl]-1-{[1-(cyanomethyl)cyclopropyl]methyl}-1H-1,3-benzodiazole-6-carboxylic acid] |
| > 7.30 | O=C(O)c1ccc2nc(Cc3ccc(Oc4cccc(COc5ccc(Cl)cc5F)n4)cc3F)n(C[C@@H]3CCO3)c2c1 [Compound 464, 2-{[4-({6-[(4-chloro-2-fluorophenoxy)methyl]pyridin-2-yl}oxy)-2-fluorophenyl]methyl}-1-{[(2S)-oxetan-2-yl]methyl}-1H-1,3-benzodiazole-6-carboxylic acid] |
